Where a name gives a salt, the structure may show the parent alone.

Common to all, as to assay: isoTOP-ABPP of compound-treated primary human T cells
What all share (format): cell-based

The target of assay [1] is Cys residues in primary human T cells (Homo sapiens, UniProt Q86YS7). To be noted: KIAA0528 C993 (Q86YS7).
Assay [2] has as its target T1, Cys residues in primary human T cells (Homo sapiens, UniProt Q9NRW3).
T1 sequence (Q9NRW3 1-190): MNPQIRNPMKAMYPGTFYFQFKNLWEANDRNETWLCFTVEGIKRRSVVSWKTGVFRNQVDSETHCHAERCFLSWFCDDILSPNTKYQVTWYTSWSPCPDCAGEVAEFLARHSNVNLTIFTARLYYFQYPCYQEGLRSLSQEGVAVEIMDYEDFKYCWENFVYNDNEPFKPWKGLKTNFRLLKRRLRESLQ
As to conditions: APOBEC3C C130 (Q9NRW3).

For assay [3], the target named is T2, Cys residues in primary human T cells (Homo sapiens, UniProt Q13045).
T2 sequence (Q13045 1-1269): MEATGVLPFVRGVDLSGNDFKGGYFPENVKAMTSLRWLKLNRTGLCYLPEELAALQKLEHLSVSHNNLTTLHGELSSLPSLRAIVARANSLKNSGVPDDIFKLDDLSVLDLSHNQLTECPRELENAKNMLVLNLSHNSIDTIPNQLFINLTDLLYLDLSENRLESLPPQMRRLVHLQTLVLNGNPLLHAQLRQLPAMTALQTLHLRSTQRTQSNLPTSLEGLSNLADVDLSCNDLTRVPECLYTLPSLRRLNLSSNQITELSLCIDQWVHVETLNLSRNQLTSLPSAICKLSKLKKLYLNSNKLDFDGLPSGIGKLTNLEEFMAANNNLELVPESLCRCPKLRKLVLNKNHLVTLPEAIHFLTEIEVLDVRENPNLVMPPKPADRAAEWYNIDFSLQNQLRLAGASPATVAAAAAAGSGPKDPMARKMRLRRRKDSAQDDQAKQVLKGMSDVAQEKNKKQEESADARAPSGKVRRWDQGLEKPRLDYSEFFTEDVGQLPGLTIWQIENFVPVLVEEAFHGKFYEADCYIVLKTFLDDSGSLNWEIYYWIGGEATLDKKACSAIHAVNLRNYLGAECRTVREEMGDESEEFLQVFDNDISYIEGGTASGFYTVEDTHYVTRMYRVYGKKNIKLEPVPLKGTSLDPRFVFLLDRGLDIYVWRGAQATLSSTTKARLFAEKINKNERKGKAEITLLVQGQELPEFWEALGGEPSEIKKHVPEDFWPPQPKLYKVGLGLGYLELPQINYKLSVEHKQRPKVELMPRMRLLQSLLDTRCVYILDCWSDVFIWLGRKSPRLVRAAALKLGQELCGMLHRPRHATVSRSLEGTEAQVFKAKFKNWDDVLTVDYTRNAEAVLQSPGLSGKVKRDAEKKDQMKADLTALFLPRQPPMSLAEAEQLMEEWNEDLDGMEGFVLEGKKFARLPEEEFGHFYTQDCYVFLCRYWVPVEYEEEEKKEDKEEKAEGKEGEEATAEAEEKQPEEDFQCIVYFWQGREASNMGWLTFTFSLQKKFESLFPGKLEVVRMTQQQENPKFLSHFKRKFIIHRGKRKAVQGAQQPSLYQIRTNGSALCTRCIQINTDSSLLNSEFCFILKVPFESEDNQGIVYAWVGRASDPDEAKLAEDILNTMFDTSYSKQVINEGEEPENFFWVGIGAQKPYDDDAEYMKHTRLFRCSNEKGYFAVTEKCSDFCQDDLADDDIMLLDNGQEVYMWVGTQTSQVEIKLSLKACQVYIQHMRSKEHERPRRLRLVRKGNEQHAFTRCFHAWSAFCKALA
As to conditions: FLU Protein flightless-1 homolog C46 (Q13045).

Assay [4] deals with T3, Cys residues in primary human T cells (Homo sapiens, UniProt Q15306).
T3 sequence (Q15306 1-451): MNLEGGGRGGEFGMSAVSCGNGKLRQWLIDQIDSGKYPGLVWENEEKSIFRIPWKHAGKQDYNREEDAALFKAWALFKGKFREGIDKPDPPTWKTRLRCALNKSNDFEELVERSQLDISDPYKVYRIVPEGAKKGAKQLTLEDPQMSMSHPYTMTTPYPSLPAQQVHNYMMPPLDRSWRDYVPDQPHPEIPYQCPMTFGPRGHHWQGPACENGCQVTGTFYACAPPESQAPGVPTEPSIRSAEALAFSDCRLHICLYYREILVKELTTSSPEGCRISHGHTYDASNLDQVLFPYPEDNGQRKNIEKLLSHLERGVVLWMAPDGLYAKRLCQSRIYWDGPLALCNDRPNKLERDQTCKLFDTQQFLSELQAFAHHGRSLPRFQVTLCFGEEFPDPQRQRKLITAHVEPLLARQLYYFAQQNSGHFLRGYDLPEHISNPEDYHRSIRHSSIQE
To be noted: IRF4 C194 (Q15306).

Assay [5] deals with T4, Cys residues in primary human T cells (Homo sapiens, UniProt Q9Y6C9).
T4 sequence (Q9Y6C9 1-303): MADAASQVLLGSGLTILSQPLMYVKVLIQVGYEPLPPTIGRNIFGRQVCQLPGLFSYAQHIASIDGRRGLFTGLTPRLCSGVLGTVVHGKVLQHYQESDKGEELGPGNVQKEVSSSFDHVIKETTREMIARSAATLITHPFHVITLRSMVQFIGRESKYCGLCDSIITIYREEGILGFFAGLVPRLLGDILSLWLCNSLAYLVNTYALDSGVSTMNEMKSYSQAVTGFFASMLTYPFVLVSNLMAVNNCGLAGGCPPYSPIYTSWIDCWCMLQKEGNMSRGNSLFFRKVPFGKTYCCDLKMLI
As to conditions: MTCH2 C296 (Q9Y6C9).

For assay [6], the target named is Cys residues in primary human T cells (Homo sapiens, UniProt Q7Z2W4). To be noted: ZC3HAV1 C645 (Q7Z2W4).
Cys residues in primary human T cells (Homo sapiens, UniProt Q7Z2W4), sequence (Q7Z2W4 whole entry): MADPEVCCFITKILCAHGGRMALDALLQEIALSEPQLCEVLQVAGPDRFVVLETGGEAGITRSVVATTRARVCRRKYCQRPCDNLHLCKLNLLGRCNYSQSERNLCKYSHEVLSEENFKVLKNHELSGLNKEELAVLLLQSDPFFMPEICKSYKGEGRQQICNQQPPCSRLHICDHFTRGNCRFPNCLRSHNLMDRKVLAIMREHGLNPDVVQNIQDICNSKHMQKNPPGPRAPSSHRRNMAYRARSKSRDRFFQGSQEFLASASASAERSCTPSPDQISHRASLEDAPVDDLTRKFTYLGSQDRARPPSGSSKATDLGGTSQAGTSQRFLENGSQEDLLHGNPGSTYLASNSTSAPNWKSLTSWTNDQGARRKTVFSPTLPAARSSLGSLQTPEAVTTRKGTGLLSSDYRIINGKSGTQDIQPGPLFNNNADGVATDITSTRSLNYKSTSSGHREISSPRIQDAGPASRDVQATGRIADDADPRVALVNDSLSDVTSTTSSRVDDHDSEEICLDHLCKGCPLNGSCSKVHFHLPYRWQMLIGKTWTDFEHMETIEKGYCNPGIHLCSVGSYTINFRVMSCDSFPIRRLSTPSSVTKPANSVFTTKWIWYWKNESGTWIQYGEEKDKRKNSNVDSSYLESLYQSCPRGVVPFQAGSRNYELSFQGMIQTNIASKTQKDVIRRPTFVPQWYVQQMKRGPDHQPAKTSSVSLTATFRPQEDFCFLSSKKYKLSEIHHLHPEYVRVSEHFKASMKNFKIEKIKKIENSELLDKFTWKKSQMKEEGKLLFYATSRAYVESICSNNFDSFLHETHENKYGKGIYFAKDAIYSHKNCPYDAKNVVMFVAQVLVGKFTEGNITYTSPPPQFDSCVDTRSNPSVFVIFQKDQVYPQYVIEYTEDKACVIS

Cys residues in primary human T cells (Homo sapiens, UniProt Q86YS7), sequence (Q86YS7 whole entry): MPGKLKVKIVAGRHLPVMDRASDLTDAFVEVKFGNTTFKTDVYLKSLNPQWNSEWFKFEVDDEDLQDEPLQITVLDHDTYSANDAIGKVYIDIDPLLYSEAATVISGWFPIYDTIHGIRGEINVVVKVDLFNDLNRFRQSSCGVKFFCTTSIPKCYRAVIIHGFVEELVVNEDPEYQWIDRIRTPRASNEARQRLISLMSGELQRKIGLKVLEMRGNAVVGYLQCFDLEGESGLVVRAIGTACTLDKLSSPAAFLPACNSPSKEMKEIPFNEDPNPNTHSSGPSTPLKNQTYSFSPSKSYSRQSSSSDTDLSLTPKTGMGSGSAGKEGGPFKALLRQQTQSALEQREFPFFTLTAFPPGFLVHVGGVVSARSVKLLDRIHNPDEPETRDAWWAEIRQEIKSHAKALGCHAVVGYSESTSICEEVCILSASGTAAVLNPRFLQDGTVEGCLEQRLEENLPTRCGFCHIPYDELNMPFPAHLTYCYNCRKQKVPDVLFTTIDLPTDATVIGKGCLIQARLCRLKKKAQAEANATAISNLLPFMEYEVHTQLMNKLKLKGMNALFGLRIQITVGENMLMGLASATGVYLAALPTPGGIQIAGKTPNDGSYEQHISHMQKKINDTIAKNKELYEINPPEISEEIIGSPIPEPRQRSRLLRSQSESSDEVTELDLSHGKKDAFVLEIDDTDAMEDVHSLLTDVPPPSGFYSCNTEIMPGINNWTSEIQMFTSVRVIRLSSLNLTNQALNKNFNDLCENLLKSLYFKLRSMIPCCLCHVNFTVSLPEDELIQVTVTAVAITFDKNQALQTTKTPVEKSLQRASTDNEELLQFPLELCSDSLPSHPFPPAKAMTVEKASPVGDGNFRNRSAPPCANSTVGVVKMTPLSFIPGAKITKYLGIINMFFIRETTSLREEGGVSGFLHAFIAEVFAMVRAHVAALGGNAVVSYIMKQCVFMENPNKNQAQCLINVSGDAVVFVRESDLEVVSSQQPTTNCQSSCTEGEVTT

Turning to `COC(=O)/C=C/C(=O)OC` [DMF, dimethyl fumarate], the “R value (DMSO/DMF)” value in assay [1] (DMF 10 μM 4h) was 1.4; in assay [1] (DMF 50 μM 4h) it was 4.38; in assay [2] (DMF 10 μM 4h), 1.92; in assay [2] (DMF 50 μM 1h), 8.6; in assay [2] (DMF 50 μM 2h) it was 20; in assay [2] (DMF 50 μM 4h) it was 20. Also, the “R value (DMSO/DMF)” value in assay [3] (DMF 10 μM 4h) is listed as 1.55; in assay [3] (DMF 50 μM 1h), 2.05; in assay [3] (DMF 50 μM 2h), 3.57; in assay [3] (DMF 50 μM 4h) it was 4.5; in assay [4] (DMF 10 μM 4h), 1.69; in assay [4] (DMF 25 μM 4h) it was 1.78. In addition, the “R value (DMSO/DMF)” value in assay [4] (DMF 50 μM 1h) is given as 1.32; in assay [4] (DMF 50 μM 2h), 3.13; in assay [4] (DMF 50 μM 4h), 5.25; in assay [5] (DMF 10 μM 4h), 1.68; in assay [5] (DMF 50 μM 1h) it was 1.81; in assay [5] (DMF 50 μM 2h), 2.44. Further, the “R value (DMSO/DMF)” value worked out at 4.3 in assay [5] (DMF 50 μM 4h); 1.46 in assay [6] (DMF 10 μM 4h); 2.52 in assay [6] (DMF 25 μM 4h); 2.36 in assay [6] (DMF 50 μM 1h); 3.13 in assay [6] (DMF 50 μM 2h); 6.28 in assay [6] (DMF 50 μM 4h).
